From patent US12441733B2, “Substituted 2,4-dioxotetrahydropyrimidines as intermediates in the synthesis of bruton's tyrosine kinase inhibitors” (Novartis AG, priority 2018, dated 2025) come the findings set out here.

The target of this test is T1, BTK-GFP (Homo sapiens, UniProt Q06187+Q96SW2).
T1 construct: expressed in transfected cells; host or cells: HEK293A (Invitrogen R70507), lentiviral transduction with pLenti6-BTK-GFP-Ires-RFP, blasticidin selection
The test is described as follows: BTK-GFP protein abundance flow cytometry assay in HEK293A cells. Conditions: HEK293A BTK-GFP-iresRFP cells, 24 h; for DC50: GFP signal by flow cytometry, concentration at which 50% maximal degradation was observed; for BTK deg Amax: % protein remaining at the concentration at which maximum degradation is seen. The class given is cell-based. The procedure, abridged:
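HEK293A cells stably expressing bicistronic BTK-GFP-IRES-RFP (C-terminal GFP tag) via lentiviral vector. Degradation read by flow cytometry as loss of GFP signal after degrader treatment. DC50 is concentration giving 50% maximal degradation; Amax is % protein remaining at maximal degradation.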
A general note: A flow cytometer gives signals particle by particle.

T1 sequence (Q06187 whole entry): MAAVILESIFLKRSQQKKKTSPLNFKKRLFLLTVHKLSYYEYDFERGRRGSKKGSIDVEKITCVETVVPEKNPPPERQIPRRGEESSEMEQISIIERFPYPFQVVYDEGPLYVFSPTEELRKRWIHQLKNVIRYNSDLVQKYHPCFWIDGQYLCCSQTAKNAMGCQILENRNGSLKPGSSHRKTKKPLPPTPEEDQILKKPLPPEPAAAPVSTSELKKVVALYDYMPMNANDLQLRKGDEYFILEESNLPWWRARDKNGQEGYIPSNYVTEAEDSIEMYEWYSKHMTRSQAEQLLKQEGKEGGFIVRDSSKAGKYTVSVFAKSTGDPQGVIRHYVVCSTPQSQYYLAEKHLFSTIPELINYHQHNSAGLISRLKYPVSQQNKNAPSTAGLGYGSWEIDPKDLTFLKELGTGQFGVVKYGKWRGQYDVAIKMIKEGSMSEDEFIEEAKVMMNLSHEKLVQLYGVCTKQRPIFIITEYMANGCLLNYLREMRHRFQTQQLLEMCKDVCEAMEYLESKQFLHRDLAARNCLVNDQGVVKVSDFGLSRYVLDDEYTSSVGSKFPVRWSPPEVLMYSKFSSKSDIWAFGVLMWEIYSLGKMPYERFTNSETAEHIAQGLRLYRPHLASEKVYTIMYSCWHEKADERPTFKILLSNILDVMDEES
T1 sequence (Q96SW2 whole entry): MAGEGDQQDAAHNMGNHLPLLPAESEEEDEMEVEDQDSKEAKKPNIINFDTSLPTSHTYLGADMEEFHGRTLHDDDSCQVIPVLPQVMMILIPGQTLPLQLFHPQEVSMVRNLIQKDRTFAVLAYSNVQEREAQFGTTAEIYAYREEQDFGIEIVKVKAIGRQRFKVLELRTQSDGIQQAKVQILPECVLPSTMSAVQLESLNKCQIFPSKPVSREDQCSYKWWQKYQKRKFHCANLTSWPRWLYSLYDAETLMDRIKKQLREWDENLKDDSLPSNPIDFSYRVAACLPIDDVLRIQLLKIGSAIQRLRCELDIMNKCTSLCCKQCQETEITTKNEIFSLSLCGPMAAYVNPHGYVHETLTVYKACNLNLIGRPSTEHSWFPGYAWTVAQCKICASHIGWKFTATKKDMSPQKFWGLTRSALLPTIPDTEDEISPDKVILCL
T1 sequence (Q16531 whole entry partner): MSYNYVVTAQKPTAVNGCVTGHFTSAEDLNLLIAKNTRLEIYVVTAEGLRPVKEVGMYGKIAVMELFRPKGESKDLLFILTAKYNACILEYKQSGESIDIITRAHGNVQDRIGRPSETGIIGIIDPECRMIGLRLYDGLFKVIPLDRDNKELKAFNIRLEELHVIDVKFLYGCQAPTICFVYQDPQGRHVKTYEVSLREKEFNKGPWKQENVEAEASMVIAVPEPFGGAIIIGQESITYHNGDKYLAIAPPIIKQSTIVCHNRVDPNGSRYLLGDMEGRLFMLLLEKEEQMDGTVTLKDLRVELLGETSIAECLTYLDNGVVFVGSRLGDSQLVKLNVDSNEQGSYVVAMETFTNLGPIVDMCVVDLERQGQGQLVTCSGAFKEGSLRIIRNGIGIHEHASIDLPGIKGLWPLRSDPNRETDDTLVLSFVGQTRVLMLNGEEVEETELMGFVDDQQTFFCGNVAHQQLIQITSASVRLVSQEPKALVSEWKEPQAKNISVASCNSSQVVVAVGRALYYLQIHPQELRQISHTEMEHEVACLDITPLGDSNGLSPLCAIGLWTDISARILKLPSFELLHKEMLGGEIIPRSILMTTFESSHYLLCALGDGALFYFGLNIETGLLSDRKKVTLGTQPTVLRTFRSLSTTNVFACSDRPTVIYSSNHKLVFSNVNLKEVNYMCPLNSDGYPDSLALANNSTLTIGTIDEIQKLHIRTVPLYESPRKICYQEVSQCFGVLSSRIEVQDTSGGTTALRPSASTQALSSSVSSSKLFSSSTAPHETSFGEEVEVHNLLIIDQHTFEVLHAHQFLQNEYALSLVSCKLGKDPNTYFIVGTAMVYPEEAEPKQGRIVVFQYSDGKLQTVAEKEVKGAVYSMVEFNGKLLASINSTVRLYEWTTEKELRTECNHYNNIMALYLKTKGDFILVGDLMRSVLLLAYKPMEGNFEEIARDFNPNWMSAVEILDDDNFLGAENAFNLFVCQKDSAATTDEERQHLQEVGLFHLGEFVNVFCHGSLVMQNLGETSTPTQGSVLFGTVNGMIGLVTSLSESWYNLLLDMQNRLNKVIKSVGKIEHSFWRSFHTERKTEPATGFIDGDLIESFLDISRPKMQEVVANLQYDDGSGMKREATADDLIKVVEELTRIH

In the case of `Cc1c(NC(=O)c2ccc(C(C)(C)O)cc2F)cc(F)cc1-c1ncnc2[nH]c(-c3ccc(COC4CCN(CCC5CCN(C(=O)c6ccc(F)c(N7CCC(=O)NC7=O)c6)CC5)CC4)cc3)cc12` [Compound 6, N-(3-(6-(4-(((1-(2(1-(3-(2,4-dioxotetrahydropyrimidin-1(2H)-yl)-4-fluorobenzoyl)piperidin-4-yl)ethyl)piperidin-4-yl)oxyl)methyl)phenyl)-7H-pyrrolo[2,3-d]pyrimidin-4-yl)-5-fluoro-2-methylphenyl)-2-fluoro-4-(2-hydroxypropan-2-yl)benzamide], half-maximal degradation (DC50) was put at 0.7 nM and the “BTK deg Amax” value turned out to be 4.1%.
Taken in the same sequence, the figures for `Cc1ccc(C(=O)N2CCC3(CCN(Cc4ccc(-c5cc6c(-c7cc(F)cc(NC(=O)c8ccc(C(C)(C)O)cc8F)c7C)ncnc6[nH]5)cc4)CC3)CC2)cc1N1CCC(=O)NC1=O` [Compound 27, N-(3-(6-(4-((9-(3-(2,4-Dioxotetrahydropyrimidin-1(2H)-yl)-4-methylbenzoyl)-3,9-diazaspiro[5.5]undecan-3-yl)methyl)phenyl)-7H-pyrrolo[2,3-d]pyrimidin-4-yl)-5-fluoro-2-methylphenyl)-2-fluoro-4-(2-hydroxypropan-2-yl)benzamide] were 1.5 nM and 4.1%.
For `Cc1ccc(C(=O)N2CCC3(CCN(CCc4ccc(-c5cc6c(-c7cc(F)cc(NC(=O)c8ccc(C(C)(C)O)cc8F)c7C)ncnc6[nH]5)cc4)CC3)CC2)cc1N1CCC(=O)NC1=O` [Compound 5, N-(3-(6-(4-(2-(9-(3-(2,4-Dioxotetrahydropyrimidin-1(2H)-yl)-4-methylbenzoyl)-3,9-diazaspiro[5.5]undecan-3-yl)ethyl)phenyl)-7H-pyrrolo[2,3-d]pyrimidin-4-yl)-5-fluoro-2-methylphenyl)-2-fluoro-4-(2-hydroxypropan-2-yl)benzamide], in that order: 1 nM and 3.1%.
For `COc1ccc(C(=O)N2CCN(CCCCNCc3ccc(-c4cc5c(-c6cc(F)cc(NC(=O)c7ccc(C(C)(C)O)cc7F)c6C)ncnc5[nH]4)cc3)CC2)cc1N1CCC(=O)NC1=O` [Compound 40, N-(3-(6-(4-(((4-(4-(3-(2,4-dioxotetrahydropyrimidin-1(2H)-yl)-4-methoxybenzoyl)piperazin-1-yl)butyl)amino)methyl)phenyl)-7H-pyrrolo[2,3-d]pyrimidin-4-yl)-5-fluoro-2-methylphenyl)-2-fluoro-4-(2-hydroxypropan-2-yl)benzamide], in that order: 53.2 nM and 4.6%.
